Data from patent publication US20040068005A1, “Pharmaceutical combinations” (priority 2000, published 2004).

Experiments:
Assay type in all cases: in vivo, New Zealand white rabbits
[1] = tested on: normal conscious rabbits; assay: Hyperinsulinaemic euglycaemic glucose clamping (insulin sensitivity), normal rabbits; settings: for Glucose infusion rate: normal rabbit; for M values of hyperinsulinaemic and euglycaemic glucose clamping: normal rabbits
Method: (§1) The experiments are carried out with adult, male New Zealand white rabbits, weighing 3.0-3.5 kg, housed as described in Am. J. Physiol 1994, Heart Circ. Physiol, 35: H2033-H2041 and J. Moll Cell.. Cardiol. 1997, 29: 1977-1983.
(§2) To estimate insulin sensitivity and/or insulin resistance, hyperinsulinaemic (100 eU/ml) euglycaemic (5.5 mM/l) glucose clamping was used. The glucose clamping values (M) were established as values of glucose infusion rates expressed in mg/kg/min to maintain blood glucose level at 5.5 mM/l.

[2] = tested on: hypercholesterolaemic, insulin resistant conscious rabbits; assay: Hyperinsulinaemic euglycaemic glucose clamping (insulin sensitivity), hypercholesterolaemic rabbits; settings: for Glucose infusion rate / M values of hyperinsulinaemic and euglycaemic glucose clamping / synergism (increased effectivity) on glycaemic control: hypercholesterolaemic; for Glucose infusion rate: insulin resistant rabbit; for synergism (increased effectivity) on glycaemic control: drug combined with nitroglycerin; for Insulin sensitivity: percent of means, control = 100
Method: (§3) The experiments are carried out with adult, male New Zealand white rabbits, weighing 3.0-3.5 kg, housed as described in Am. […] Physiol, 35: H2033-H2041 and J. Moll Cell.. Cardiol.
as §2

[3] = tested on: hypercholesterolaemic, insulin resistant conscious rabbits; assay: Ventricular pacing-induced myocardial ischaemia (ST-segment elevation), hypercholesterolaemic rabbits; settings: for ST-segment elevation / intracavitary ST-segment elevation / ischaemic changes produced by VOP: hypercholesterolaemic; for ST-segment elevation: insulin resistant rabbit; for intracavitary ST-segment elevation / ischaemic changes produced by VOP: insulin resistant rabbits, drug alone
Method: as §3
(§4) The induction of global myocardial ischaemia was based on a method described as above.

[4] = tested on: normal conscious rabbits; assay: Ventricular pacing-induced myocardial ischaemia (ST-segment elevation), normal rabbits; settings: for intracavitary ST-segment elevation / anti-ischaemic effect of combination with nitroglycerin: normal conscious rabbits; for intracavitary ST-segment elevation: drug alone; for anti-ischaemic effect of combination with nitroglycerin: nitroglycerin combined with the drug; for ST-segment elevation: normal rabbit
Method: as §3, §4

[5] = tested on: streptozotocin diabetic rabbits; assay: Femoral nerve conduction velocity, streptozotocin diabetes; settings: for Nerve conduction velocity: femoral “C” fibers, streptozotocin diabetic rabbit; for nerve conduction in “C” fibres: streptozotocin-diabetes model, drug alone, nitroglycerin 12-h patch on vs 12-h patch off over three days
Method: as §1
These series of experiments were carried out to verify/exclude sensory neuropathy. Left saphenous nerve conduction velocity was determined as described in Eur J. Pharmacol 1999, 386:83-88.
Streptozotocin (40 mg/kg i.v.) produced a decrease in nerve conduction velocity in femoral “A” and “C” fibres, respectively, as determined 8 weeks after streptozotocin injection. […] The combination of any of these drugs with nitroglycerin yielded an improvement of conduction velocity in streptozotocin-diabetic aminals similar to that seen with nitroglycerin alone.

[6] = tested on: hypercholesterolaemic, insulin resistant rabbits; assay: Femoral nerve conduction velocity, hyperlipidaemia-induced insulin resistance; settings: femoral “C” fibers, hypercholesterolaemic, insulin resistant rabbit
Method: as §3
These series of experiments were carried out to verify/exclude sensory neuropathy.

[7] = placebo patch, troglitazon 70 mg/kg p.os, metformin 5 mg/kg i.v., glibenclamide 1 mg/kg i.v., idazoxan 2 mg/kg i.v., mean
[8] = with active patch (nitroglycerin 0.07 mg/kg/h), alone (Control) or together with the drug, troglitazon 70 mg/kg p.os, metformin 5 mg/kg i.v., glibenclamide 1 mg/kg i.v., idazoxan 2 mg/kg i.v.
[9] = drug alone, troglitazon 70 mg/kg/day p. os over 3 days, metformin 5 mg/kg/day i.v. over 3 days, glibenclamide 1 mg/kg i.v., idazoxan 2 mg/kg i.v.
[10] = placebo patch, troglitazon 70 mg/kg p.os, metformin 5 mg/kg i.v., glibenclamide 1 mg/kg i.v., idazoxan 2 mg/kg i.v.
[11] = with active patch (nitroglycerin 0.07 mg/kg/h), alone (Control) or together with the drug, same doses
[12] = insulin resistant rabbits, in the presence of nitroglycerin and the drug, compared to the placebo patch group
[13] = with active patch (nitroglycerin 0.07 mg/kg/h), alone (Control) or with the drug
[14] = placebo patch, troglitazon 70 mg/kg p.os, metformin 5 mg/kg i.v., glibenclamide 1 mg/kg i.v., idazoxan 2 mg/kg i.v., healthy untreated 6.2
[15] = metformin 100 mg/kg p.os, ISMN controlled release 5 mg/kg p.os
[16] = nitroglycerin patch 0.07 mg/kg/h, metformin 5 mg/kg i.v., troglitazon 70 mg/kg p.os

Structure (SMILES)	Glucose infusion rate [1, 7]	Glucose infusion rate [1, 8]	M values of hyperinsulinaemic and euglycaemic glucose clamping [1, 9]	Glucose infusion rate [2, 10]	Glucose infusion rate [2, 11]	M values of hyperinsulinaemic and euglycaemic glucose clamping [2, 12]	synergism (increased effectivity) on glycaemic control ([2]; insulin resistant rabbits)	ST-segment elevation ([3]; placebo patch, same doses)	ST-segment elevation [3, 13]	intracavitary ST-segment elevation / ischaemic changes produced by VOP [3]	intracavitary ST-segment elevation [4]	anti-ischaemic effect of combination with nitroglycerin [4]	ST-segment elevation [4, 10]	ST-segment elevation [4, 13]	Nerve conduction velocity [5, 14]	Nerve conduction velocity [5, 13]	nerve conduction in “C” fibres [5]	Insulin sensitivity [2, 16]	further results
COc1ccc(Cl)cc1C(=O)NCCc1ccc(S(=O)(=O)NC(=O)NC2CCCCC2)cc1 [Glibenclamide, glibenclamide]	14.667 mg/kg/min	16.500 mg/kg/min	without effect	8.833 mg/kg/min	12.333 mg/kg/min	significantly increased	synergism	1.9 ± 0.40 mV	1.5 ± 0.13 mV	without effect	without effect	anti-ischaemic effect similar to that produced by nitroglyc erin alone	1.4 ± 0.08 mV	0.8 ± 0.08 mV	2.9 ± 0.24 dm/s	3.6 ± 0.2 dm/s	Neither troglitazon,nor glibenclamide, idazoxan or metformin produced any effect		
c1ccc2c(c1)OCC(C1=NCCN1)O2 (centres unmarked) [Idazoxan, idazoxane]	14.667 mg/kg/min	16.000 mg/kg/min	without effect	8.500 mg/kg/min	12.833 mg/kg/min	significantly increased	synergism	2.3 ± 0.50 mV	1.8 ± 0.16 mV	aggravated ischaemic changes		anti-ischaemic effect similar to that produced by nitroglyc erin alone	1.4 ± 0.05 mV	0.8 ± 0.09 mV	2.8 ± 0.26 dm/s	3.4 ± 0.2 dm/s	Neither troglitazon,nor glibenclamide, idazoxan or metformin produced any effect		ventricular extrasystoles on VOP ([3]; insulin resistant animals, idazoxan 2 mg/kg i.v.): VOP induced ventricular extrasystolesin the insulin resistant animals
CN(C)C(=N)N=C(N)N [Metformin, metformine]	15.667 mg/kg/min	19.833 mg/kg/min	without effect	10.833 mg/kg/min	14.500 mg/kg/min	significantly increased		2.1 ± 0.13 mV	1.5 ± 0.08 mV	without effect	without effect	anti-ischaemic effect similar to that produced by nitroglyc erin alone	1.4 ± 0.08 mV	0.8 ± 0.10 mV	3.1 ± 0.2 dm/s	3.6 ± 0.2 dm/s	Neither troglitazon,nor glibenclamide, idazoxan or metformin produced any effect	120.4%	Glucose infusion rate [1, 15]: 14.80 ± 0.0800 mg/kg/min; M values of hyperinsulinaemic and euglycaemic glucose clamping ([1]; drug alone vs control, isosorbide-5-mononitrate 1 mg/kg/day (Olicard 40), metformin 100 mg/kg/day p.os over 3 days): without any effect; M values of hyperinsulinaemic and euglycaemic glucose clamping ([1]; in the presence of transdermal nitroglycerin combined with the drug): significantly increased; M values of hyperinsulinaemic and euglycaemic glucose clamping ([1]; metformin 100 mg/kg/day p.os in the presence of ISML (ISMN)): significant increase; Glucose infusion rate [2, 15]: 11.70 ± 1.0300 mg/kg/min; M values of hyperinsulinaemic and euglycaemic glucose clamping ([2]; insulin resistant rabbits vs control, ISMN 5 mg/kg/day (Olicard 40), metformin 100 mg/kg/day p.os over 3 days): significant increase; Insulin sensitivity ([2]; ISMN controlled release 5 mg/kg p.os, metformin 100 mg/kg p.os): 120.6%
Cc1c(C)c2c(c(C)c1O)CCC(C)(COc1ccc(CC3SC(=O)NC3=O)cc1)O2 (centres unmarked) [Troglitazon, troglitazone]	17.167 mg/kg/min	19.333 mg/kg/min		11.000 mg/kg/min	14.667 mg/kg/min			1.6 ± 0.12 mV	1.08 ± 0.10 mV				1.1 ± 0.08 mV	0.7 ± 0.09 mV	3.2 ± 0.3 dm/s	3.6 ± 0.2 dm/s		122.2%	Nerve conduction velocity ([6]; placebo patch, troglitazon 70 mg/kg p.os): 4.6 ± 0.4 dm/s; Nerve conduction velocity ([6]; with active patch (nitroglycerin 0.07 mg/kg/h), alone (Control) or with troglitazon 70 mg/kg p.os): 5.9 ± 0.2 dm/s
